According to article PMC6591251, “Discovery of potent necroptosis inhibitors targeting RIPK1 kinase activity for the treatment of inflammatory disorder and cancer metastasis” (Cell Death & Disease, 2019):

Assays:
U937 cells = test: TNF-induced necroptosis (T/S/Z), cell viability by ATP levels; format: cell-based; details: Homo sapiens, U-937, 24 h, T/S/Z 24 h
RFP-LL/2 cells [1] = test: Early metastasis/extravasation of tumor cells, 6 h after injection; format: in vivo, C57BL/6 mice; details: 5 mg/kg ip
Method: (§1) Studies have shown that RIPK1 kinase activity is involved in the promotion of tumor metastasis through death receptor 6-dependent necroptosis of endothelial cells[22] or VEGF-dependent activation of vascular permeability. We thus evaluated the therapeutic effect of PK68 on lung metastasis of mouse melanoma B16-F10 cells in vivo. […] After 2 weeks, the metastasis of B16-F10 cells was measured by histological analysis and assessed as the number of metastasis nodules in the lung. […] Two weeks after intravenous injection of RFP-LL/2 cells, RFP^+ LL/2 cells were isolated from the tumor tissues by flow cytometer sorting and no signal of phosphorylated RIPK1 was detected in these tumors cells (Supplementary Fig. 22). […] Further, we evaluated the effect of PK68 on the tumor cell transmigration across the cultured endothelium. […]
Melanoma B16-F10 cells (0.5 × 10^6 cells) or RFP-labeled lung carcinoma LL/2 cells (0.3 × 10^6 cells) were injected into C57BL/6 mice in a volume of 200 μl PBS via the tail intravenous injection. […] The lung metastasis of B16-F10 cells in mice was determined by accounting the number of metastasis nodules with a dissecting microscope (Leica) and histologic analysis. The lung metastasis of LL/2 cells in mice was analyzed by measuring RFP fluorescence intensities with the PerkinElmer IVIS Lumina II. […]

RFP-LL/2 cells [2] = test: Lung metastasis model of RFP-labeled Lewis lung carcinoma cells; format: in vivo, C57BL/6 mice; details: 5 mg/kg ip pre-treatment; 14 days
Method: as §1
C57BL/6 mice bearing B16-F10 cells (a, b) or RFP-labeled LL/2 cells (c, d) were treated with vehicle, PK68 (5 mg/kg) or Nec-1s (5 mg/kg) as described in the Materials and methods. a, b Tumor metastasis of B16-F10 was measured by the numbers of metastasis nodules and histological analysis. […] The numbers of metastasis nodules on lung surfaces (b) in the metastasis model of B16-F10 were counted with the microscope. c, d Tumor metastasis of RFP-labeled LL/2 was calculated by RFP […] intensity. […]

Row | SMILES | EC50 (U937 cells) | number of RFP-LL/2 cells in the lung 6 h after injection (RFP-LL/2 cells [1]) | lung metastasis of RFP-LL/2 cells (RFP-LL/2 cells [2])
1 | CC(=O)Nc1nc2ccc(-c3cnc(Cl)c(NC(=O)Cc4ccccc4)c3)cc2s1 [PK6, N-(5-(2-acetamidobenzo[d]thiazol-6-yl)-2-chloropyridin-3-yl)-2-phenylacetamide] | ~1330 nM | – | –
2 | CC(=O)Nc1nc2ccc(-c3cnc(C)c(NC(=O)OC4CCCCC4)c3)cc2s1 [PK68, cyclohexyl (5-(2-acetamidobenzo[d]thiazol-6-yl)-2-methylpyridin-3-yl)carbamate] | – | decreased number | markedly decreased
